Reference: patent US20230090708A1, “METHODS AND COMPOSITIONS FOR THE TREATMENT OF HEMANGIOMA” (MASSEY VENTURES LIMITED, priority 2020, published 2023)
≈ marks a conversion by molar mass, not a printed value. Like-named read-outs stand apart in the source and are kept apart here.

Key:
[1] = system: proliferating hemangioma cells; assay: Experiment 7: different ACEi and beta blockers on one primary cell line, MTT; format: cell-based, human; conditions: for inhibition of proliferating hemangioma cells: 1 μM and 10 μM; for Results Summary: 72 hours, one cell line; for inhibition at 1 µM / inhibition at 10 µM: Homo sapiens, 72 h, read-out: Inhibition vs. Cells + Adjuvant at 72 Hours
Experimental: (§1) An in vitro cell culture model of infantile hemangioma was developed to assess the impact of renin-angiotensin system inhibitors on cellular proliferation. A primary cell line of proliferating infantile hemangioma cells, including haemangioma stem cells, was derived from a tissue biopsy obtained from patients during the proliferating phase of the disease. The primary cell lines are cultured in 25 cm^2 flasks using standard culture media and conditions. The cultured cells are used to seed 96-well plates with a seed cell concentration of 2500 or 5000 cells per well, with additional culture media (200 μL). All studies are performed in triplicate.
The plates are incubated overnight to allow cell adherence to the wells. The wells are photographed to confirm cell adherence and confluency. The appropriate drug(s) to be examined are subsequently added to the wells. […] The media is aspirated from each well and stored frozen for possible future analyses. Media is added to the wells and an MTT determination is undertaken according to standard protocols.
(§2) From the triplicate incubations of each drug concentration at each time, as well as for all controls, the mean±standard deviation is calculated. The net survival (optical density value) is calculated by subtracting the appropriate blank mean value from each cell culture. From the MTT data, the percentage of survival of cells in the presence of each concentration of drug after each time of culturing is determined.
Briefly, cells were seeded in 96-well plates at concentrations of 2500 cells/well in triplicate for each drug and drug combination. […] All plates were performed in triplicate. Beta blockers used in the study were (±)-propranolol, R-propranolol, S-propranolol, timolol, and betaxalol.

[2] = cited from earlier work
[3] = system: proliferating IH; conditions: cited from earlier work
[4] = system: proliferating infantile hemangioma cells derived from multiple patients (n=5); assay: Example 4: single agents and combinations on five patient-derived cell lines, MTT; format: cell-based, human; conditions: for Individual Responders at 72 Hours with ≥30% Inhibition vs. Cells + Adjuvant: responders/cell lines; for Results Summary: 72 hours, n=5 cell lines; for Estimated Optimal Dosage Range in vitro / inhibition of all five patient-derived haemangioma cell lines: single agent
Experimental: An in vitro cell culture model of infantile hemangioma was developed to assess the impact of renin-angiotensin system inhibitors on cellular proliferation. A primary cell line of proliferating infantile hemangioma cells, including haemangioma stem cells, was derived from a tissue biopsy obtained from patients during the proliferating phase of the disease. The primary cell lines are cultured in 25 cm^2 flasks using standard culture media and conditions. The cultured cells are used to seed 96-well plates with a seed cell concentration of 2500 or 5000 cells per well, with additional culture media (200 μL). All studies are performed in triplicate. The plates are incubated overnight to allow cell adherence to the wells. The wells are photographed to confirm cell adherence and confluency. The appropriate drug(s) to be examined are subsequently added to the wells. After 24 hours, one set of plates (experimental and blank) is stopped. The media is aspirated from each well and stored frozen for possible future analyses. Media is added to the wells and an MTT determination is undertaken according to standard protocols. This is repeated at 48 and 72 hours. From the triplicate incubations of each drug concentration at each time, as well as for all controls, the mean±standard deviation is calculated. The net survival (optical density value) is calculated by subtracting the appropriate blank mean value from each cell culture. From the MTT data, the percentage of survival of cells in the presence of each concentration of drug after each time of culturing is determined. […] The experimental protocol was performed as per Example 1. Briefly, cells were seeded in 96-well plates at a concentration of 2500 cells/well in triplicate for each drug and drug combination. Drug(s) were added to each well 24 hours after seeding and re-dosed every 24 hours. Cell viability was assessed by MTT assay after 24, 48, and 72 hours. All plates were performed in triplicate. Drugs were assessed alone and in combination as described in Table 3.

[5] = cited from earlier work; remark: listed apart in the source
[6] = cited from earlier work; for Log P: Table 1
[7] = cited from earlier work; for Half life: short or long acting: in words; for Half life: in vivo
[8] = system: proliferating hemangioma cell lines (n=9); assay: Example 6: single agents and combinations on nine primary cell lines, MTT, CompuSyn combination index; format: cell-based, human
Experimental: as §1
The plates are incubated overnight to allow cell adherence to the wells. The wells are photographed to confirm cell adherence and confluency. The appropriate drug(s) to be examined are subsequently added to the wells. After 24 hours, one set of plates (experimental and blank) is stopped. The media is aspirated from each well and stored frozen for possible future analyses. Media is added to the wells and an MTT determination is undertaken according to standard protocols. This is repeated at 48 and 72 hours.
as §2
A study was undertaken using combinations of ACE inhibitors, beta blockers and angiotensin II type 2 receptor blockers to inhibit proliferating hemangioma cells. […] Patient histories pertaining to each cell line is described in Table 5.
The experimental protocol was performed as per Example 1. Briefly, cells were seeded in 96-well plates at concentrations of 2500 cells/well in triplicate for each drug and drug combination. Drug(s) were added to each well 24 hours after seeding and re-dosed every 24 hours. Cell viability was assessed by MTT assay after 24, 48, and 72 hours. All plates were performed in triplicate. Drugs were assessed alone and in combination, as described in Table 6. Propranolol was used as a model beta blocker, cilazapril as a model ACE inhibitor, and SMM02 (L-159686) as a model AT2Ri. Synergy was measured using the CompuSyn open-source software protocol for quantifying synergism and antagonism that uses the median-effect equation and mass-action laws to generate a combination index (www.compusyn.com). Synergism, additive effects and antagonism are defined as a CI<1, CI=1, and CI>1, respectively.

## CC(C)NCC(O)COc1ccc(CCOCC2CC2)cc1 (stereo not drawn) [Betaxolol]
[1]
  inhibition of proliferating hemangioma cells: no response
  Results Summary: Non-
  inhibition at 1 µM: 2.8%
  inhibition at 10 µM: < 0%

## C[C@H](CS)C(=O)N1CCC[C@H]1C(=O)O [Captopril]
[2]
  Solubility: 130 mg/mL (≈ 598 mM)
[3]; n of eight patients
  patients with response scored dramatic: 3
  patients with response scored medium: 2
  patients with response scored slow: 3
[3]; oral 1.5 mg/kg daily, eight patients
  effect on proliferating IH: positive effect in all patients
[3]; treatment ceased after 14 months
  rebound growth after treatment ceased: no rebound growth

## COc1ccc2c(c1OCc1ccccc1)C[C@@H](C(=O)O)N(C(=O)C(c1ccccc1)c1ccccc1)C2 [EMA401, (S)-5-(benzyloxy)-2-(2,2-diphenylacetyl)-6-methoxy-1,2,3,4-tetrahydroisoquinoline-3-carboxylic acid]
[4]; 1 μM
  Individual Responders at 72 Hours with ≥30% Inhibition vs. Cells + Adjuvant: 1 μM - ¼
[4]; 10 μM
  Individual Responders at 72 Hours with ≥30% Inhibition vs. Cells + Adjuvant: 10 μM - 4/5
[4]; 100 μM
  Individual Responders at 72 Hours with ≥30% Inhibition vs. Cells + Adjuvant: 100 μM - 5/5
[4]
  Results Summary: Responder
  Estimated Optimal Dosage Range in vitro: 5 to 25 µM
  inhibition of all five patient-derived haemangioma cell lines: significantly inhibited

## CCOC(=O)[C@H](CCc1ccccc1)N[C@@H](C)C(=O)N1CCC[C@H]1C(=O)O [Enalapril]
[5]
  pKa: 2.97
[5]; second value
  pKa: 5.35
[6]
  Log P: 0.07
[7]
  Half life: short or long acting: Long acting
[1]
  inhibition of proliferating hemangioma cells: good and similar level of inhibition
  Results Summary: Responder
  inhibition at 1 µM: 1.55%
  inhibition at 10 µM: 67.9%

## CCCCc1nc(Cl)c(CO)n1Cc1ccc(-c2ccccc2-c2nn[nH]n2)cc1 [Losartan]
[4]; 1 μM
  Individual Responders at 72 Hours with ≥30% Inhibition vs. Cells + Adjuvant: 1 μM - 0/5
[4]; 10 μM
  Individual Responders at 72 Hours with ≥30% Inhibition vs. Cells + Adjuvant: 10 μM - 0/5
[4]
  Results Summary: Non-Responder
  inhibition of all five patient-derived haemangioma cell lines: not

## CCOC(=O)[C@H](CCc1ccccc1)N[C@@H](C)C(=O)N1Cc2ccccc2C[C@H]1C(=O)O [Quinapril]
[5]
  pKa: 3.7
[5]; second value
  pKa: 5.2
[6]
  Log P: 3.2
  log P: 3.2
[7]
  Half life: short or long acting: Short acting
[1]
  inhibition of proliferating hemangioma cells: good and similar level of inhibition
  Results Summary: Responder
  inhibition at 1 µM: 4.87%
  inhibition at 10 µM: 62.3%

## C[C@H](N[C@@H](CCc1ccccc1)C(=O)O)C(=O)N1Cc2ccccc2C[C@H]1C(=O)O [Quinaprilat, quinaprilat]
[7]
  Half life: 3 h (quinaprilat)

## C[C@H](N[C@@H](CCc1ccccc1)C(=O)O)C(=O)N1[C@H](C(=O)O)C[C@@H]2CCC[C@@H]21 [Ramiprilat, ramiprilat]
[7]
  Half life: 13 to 17 h

## O=C(O)[C@@H]1CN(C(=O)N(c2ccccc2)c2ccccc2)CCN1C(=O)N(c1ccccc1)c1ccccc1 [SMM02, (S)-1,4-bis(N,N-diphenylcarbamoyl)piperazine-2-carboxylic acid]
[8]; 1 to 10 μM, 72 hours, n=9
  dose-response across all cell lines: non-linear dose-response
[8]; single agent, consistent inhibition above it
  threshold concentration: 2.5 µM
[4]; 1 μM
  Individual Responders at 72 Hours with ≥30% Inhibition vs. Cells + Adjuvant: 1 μM - 0/4
[4]; 10 μM
  Individual Responders at 72 Hours with ≥30% Inhibition vs. Cells + Adjuvant: 10 μM - 5/5
[4]; 100 μM
  Individual Responders at 72 Hours with ≥30% Inhibition vs. Cells + Adjuvant: 100 μM - 5/5
[4]
  Results Summary: Responder
  Estimated Optimal Dosage Range in vitro: 1 to 10 µM
  inhibition of all five patient-derived haemangioma cell lines: significantly inhibited

## CCOC(=O)[C@H](CCc1ccccc1)N[C@@H](C)C(=O)N1[C@H](C(=O)O)C[C@H]2CCCC[C@@H]21 [Trandolapril]
[5]
  pKa: 3.8
[5]; second value
  pKa: 5.2
[6]
  Log P: 3.5
  log P: 3.5
[7]
  Half life: 6 h
  Half life: short or long acting: Long acting
[1]
  inhibition of proliferating hemangioma cells: good and similar level of inhibition
  Results Summary: Responder
  inhibition at 1 µM: 0.63%
  inhibition at 10 µM: 67.8%

## C[C@H](N[C@@H](CCc1ccccc1)C(=O)O)C(=O)N1[C@H](C(=O)O)C[C@H]2CCCC[C@@H]21 [Trandolaprilat, trandolaprilat]
[7]
  Half life: 10 h

## O=C(O)CN1C(=O)[C@@H](N[C@@H](CCc2ccccc2)C(=O)O)CCc2ccccc21 [benazeprilat]
[7]
  Half life: 10 to 11 h

## C[C@H](N[C@@H](CCc1ccccc1)C(=O)O)C(=O)N1CCC[C@H]1C(=O)O [enalaprilat]
[7]
  Half life: 11 h (enalaprilat)
